“Also recorded” adds a separate entry of the source.
Tests used:
[1] = tested on: ICAM-1 (CD54) expression in HS-24 cells; assay: Cell surface expression of ICAM-1 in HS-24 cells (flow cytometry); type: cell-based; conditions: for TNF-induced ICAM-1 expression: siRNA 48 h, TNF 10 ng/ml overnight
Protocol: (§1) FIGS. 6A and 6B. HS-24 cells plated on either polylysine coated plates (non stimulated, resting) or fibronectin coated plates (stimulated) were treated with siRNA-2, or siRNA-1 (control), or piceatannol. Cells were treated with 10 ng/ml of TNF during overnight culture. (FIG. 6A) Following siRNA (48 h) or piceatannol (16 h) treatment, cells were removed, immunostained with anti-CD54 (ICAM-1) and analysed by flow cytometry. (FIG. 6B) Cell culture supernatants were analysed for IL-6 release using an IL-6 ELISA kit. *P<0.05, **P<0.005 as compared to untreated cells (e.g., untreated with siRNA) stimulated with TNF. Results are representative of three to five independent experiments.
(§2) or Syk antisense, with Lipofectamine 2000 in a 12-well plate for 24 or 48 hr, and stimulated by 10 ng/ml of TNF overnight. Read-outs: IL-6 in culture supernatant (ELISA) and cell surface expression of ICAM-1 (Flow cytometry). As shown by Western blot analysis ([…]), siRNA-2 caused a decrease in Syk protein expression following 48 hr of treatment.

Syk kinase = assay: Western blot densitometry of Syk kinase protein in RBL-2H3 cells transfected with siRNA; type: cell-based, rat; conditions: for Syk (densitometry quantification of Syk kinase expression) / Syk Corr (Syk densitometry units corrected for % actin expression in each lane): 48 hours after transfection; for Syk (densitometry quantification of Syk kinase expression): Western blot; for Syk Corr (Syk densitometry units corrected for % actin expression in each lane): normalized to actin; for % Syk Inhibition: compared to transfection control
Protocol: Rat basophilic cells (RBL-2H3) were grown in EMEM supplemented with 17% FBS, 100 U penicillin, 100 μg/ml streptomycin, and 4 mM glutamine at 37° C. in 5% CO2.
SIRNA was introduced into RBL-2H3 cells and into monocytes by transfection. For the transfections, 5×10^4 RBL-2H3 cells or 1×10^5 monocytes were seeded into each well of a 24-well plate. Twenty-four hours later, the complete medium was replaced with 400 μl fresh medium lacking serum and antibiotic and siRNA/Lipofectamine 2000 complex was added to each well. For the RBL cells, the siRNA/Lipofectamine 2000 complex was formed by adding 3 μl of siRNA duplex (20 μM) and 3 μl of Lipofectamine 2000 to 100 μl Opti-mem without serum or antibiotic according to the manufacturer's protocol. For monocytes, the siRNA/Lipofectamine 2000 complex was formed by adding 3 μl of siRNA duplex (20 μM) and 1 μl of Lipofectamine 2000 to 100 μl Opti-mem without serum or antibiotic. Cells were incubated at 37° C. for 48 hours before examination of kinase protein expression by Western blotting
Lysates were prepared by boiling cells in Laemmli sample buffer (2% SDS, 10% glycerol, 100 mM DTT, and 60 mM Tris (pH 6.8) for 5 minutes. Proteins in lysates were separated by SDS-PAGE (10% polyacrylamide) and transferred to a nitrocellulose membrane in […] (25 mM Tris, 190 mM glycine, and 20% methanol). The nitrocellulose membrane was incubated overnight at 4° C. with 1 μg/ml rabbit anti-murine Syk kinsae polyclonal Ab before incubation with goat anti-rabbit HRP (1.5 h at room temperature). Protein bands on the membrane were visualized with chemiluminescence reagent according to the manufacturer's protocol. After detection of Syk kinase protein, the anti-Syk kinase Ab was removed by incubating the membrane in a stripping buffer containing 100 mM 2-ME, 2% SDS, and 62.5 mM Tris-HCL (pH 6.7) for 30 minutes at 50° C. with occasional agitation. The membrane was then reprobed with anti-actin Ab and bands on the membrane were visualized with chemiluminescence reagent. Protein levels of Syk kinase were quantified by densitometry (Personal Densitometer, Molecular Dynamics).

Syk = assay: Western blot of Syk protein expression in HS-24 cells after siRNA treatment; type: cell-based; conditions: 48 hr treatment
Protocol: (§3) FIGS. 5A and 5B. (FIG. 5A) HS-24 cells, following siRNA treatment, were lysed and equal amounts of total protein in HS-24 cell lysates were resolved by 10% SDS gel electrophoresis, and analyzed by Western blot using monoclonal antibody to Syk or actin. Lane 1—no treatment, lane 2—siRNA-1 (control) 24 h treatment, lane 3—siRNA-1 48 h treatment, lane 4—siRNA-2 24 h treatment, lane 5—siRNA-2 48 h treatment. (FIG. 5B) RNA was isolated and RT-PCR was performed for Syk and β-actin. Lane 1—no treatment, lane 2—SiRNA-1 (control) 48 h treatment, lane 3—siRNA-2 48 h treatment.
HS-24 cells (2×10^5) were pre-treated with 3 μl of siRNA-1 (control)
as §2
(§4) More specifically, HS-24 cells were transiently transfected with siRNA-2 or siRNA-1 (control). Cell surface expression of ICAM-1, as well as release of IL-6, were then examined.

Syk mRNA = assay: RT-PCR of Syk mRNA in HS-24 cells after siRNA treatment; type: cell-based; conditions: 48 h treatment
Protocol: as §3, §4

[2] = tested on: IL-6 release by HS-24 cells; assay: IL-6 release of HS-24 cells into culture supernatant (ELISA); type: cell-based
Protocol: as §1, §2

HS-24 cells = assay: Viability of HS-24 cells by trypan blue dye exclusion; type: cell-based; conditions: no significant effect on viability

Compound: siRNA-2: Syk kinase siRNA duplex; sense 5′-ccucaucagggaauaucug UU 3′ (SEQ ID NO: 25), antisense 3′-UU ggaguagucccuuauagac 5′ (SEQ ID NO: 26) (sense CCUCAUCAGGGAAUAUCUGUU; antisense CAGAUAUUCCCUGAUGAGGTT; chemistry not fully specified)
- TNF-induced ICAM-1 expression (summary of FIG. 6A) ([1]; HS-24 cells): down-regulates
- constitutive ICAM-1 expression ([1]; HS-24 cells without TNF stimulation): not affected
- TNF-induced ICAM-1 expression ([1]; fibronectin-plated HS-24 cells): down-regulated
- TNF-induced ICAM-1 expression ([1]; poly-L-lysine-plated HS-24 cells): no significant effect
- Syk (densitometry quantification of Syk kinase expression) (Syk kinase): 627 densitometry units
- Syk Corr (Syk densitometry units corrected for % actin expression in each lane) (Syk kinase): 997 densitometry units
- % Syk Inhibition (Syk kinase): 51%
- Syk protein expression (Syk): decrease; also recorded: significantly suppressed
- Syk mRNA expression (Syk mRNA): significantly suppressed
- IL-6 release (summary of FIG. 6B) ([2]; HS-24 cells, TNF-induced): down-regulates
- down-regulation of IL-6 release ([2]; TNF-stimulated HS-24 cells, poly-L-lysine and fibronectin culture, significant in fibronectin-adherent culture (P<0.05)): 55–58%

Compound: Oc1cc(O)cc(/C=C/c2ccc(O)c(O)c2)c1 [piceatannol]
- viability (trypan blue dye exclusion) (HS-24 cells): > 96%

Compound: siRNA-1: Syk kinase siRNA duplex; sense 5′ gaagcccuucaaccggccc UU 3′ (SEQ ID NO: 23), antisense 3′-UU cuucgggaaguuggccggg 5′ (SEQ ID NO: 24) (sense GAAGCCCUUCAACCGGCCCUU; antisense GGGCCGGUUGAAGGGCUUCTT; chemistry not given here)
- Syk (densitometry quantification of Syk kinase expression) (Syk kinase): 953 densitometry units
- Syk Corr (Syk densitometry units corrected for % actin expression in each lane) (Syk kinase): 1114 densitometry units
- % Syk Inhibition (Syk kinase): 45%
- Syk protein expression (Syk): not
- Syk mRNA expression (Syk mRNA): not

From patent publication US7173015B2, “Inhibition of Syk kinase expression” (The Trustees of the University of Pennsylvania, priority 2003, dated 2007)
